Results: article PMC11855827, “High-Throughput Screening of Five Compound Libraries for Anthelmintic Activity and Toxicity Leads to the Discovery of Two Flavonoid Compounds” (International Journal of Molecular Sciences, 2025)
Values joined by “and” are separate entries in the source; they are usually repeats but may differ in a detail not shown here. Equal entries are not always repeated. Where two headings read alike, the source gives them in different places.

Test system: C. elegans
[1] = Table S2, C. elegans SS assay, 110 μM, 0 h, averages of 4 data points
[2] = Table S2, C. elegans SS assay, 110 μM, 24 h, averages of 4 data points

| Compound | Percentage of motility inhibition 0 h [1] | Percentage of motility inhibition 24 h [2] | further results |
| --- | --- | --- | --- |
| CC1=CC23C(=O)C(C=C4COC(C)(C)OC4C24OC(C)(C)OC14)C1C(CC3C)C1(C)C (centres unmarked) [Ingenol-3,4,5,20-diacetonide] | 1% | 9% |  |
| CC(C)=CCc1c(O)cc2c(c1O)C(=O)C[C@@H](c1ccc(O)cc1)O2 [(2S)‐6‐Prenylnaringenin] | 0% | 0% |  |
| O=Cc1c[nH]c2ccccc12 [Indole‐3‐carboxaldehyde] | 0% | 17% |  |
| Eprinomectin [reference compound] | 96% | 86% | Inhibition (%) 110 μM (0 h): 91 ± 3%; Inhibition (%) 110 μM (24 h): 92 ± 3% |
| Rebaudioside B | 6% | 1% |  |
| CC(C)c1ccc2c(c1)CC[C@H]1[C@](C)(CN)CCC[C@]21C.Cl [Leelamine (hydrochloride)] | 22% | 57% |  |
| COc1ccc(OCc2ccc(COc3c(Cl)cccc3Cl)cc2)c(Cl)c1 [Pocapavir] | 29% | 18% |  |
| C=C[C@H]1[C@H](O[C@@H]2O[C@H](CO)[C@@H](O)[C@H](O)[C@H]2OC(=O)c2c(O)cc(O)cc2-c2cccc(O)c2)OC=C2C(=O)OCC[C@]21O [Amaroswerin] | 0% | 0% |  |
| CCCCCCCCCCCCC(=O)NNC(=O)c1c(O)c2ccccc2n(CC)c1=O [I2906] | 27% | 30% |  |
| O=c1c(O[C@@H]2O[C@H](CO)[C@@H](O)[C@H](O)[C@H]2O[C@@H]2O[C@H](CO)[C@@H](O)[C@H](O)[C@H]2O)c(-c2ccc(O)c(O)c2)oc2cc(O)cc(O)c12 [Baimaside] | 13% | 0% |  |
| CC1(C)C=Cc2c(ccc(C(=O)/C=C/c3ccc(O)cc3)c2O)O1 [4‐Hydroxylonchocarpin] | 11% | 9% |  |
| CC(C)(O)CCC(=O)[C@](C)(O)C1[C@H](O)C[C@@]2(C)[C@@H]3CC=C4[C@@H](C[C@H](O)[C@@H](O)C4(C)C)[C@]3(C)C(=O)C[C@]12C (some centres unmarked) [Cucurbitacin IIb] | 7% | 43% |  |
| CN1[C@@H]2CC[C@H]1C[C@@H](OC(=O)C(CO)c1ccccc1)C2 (some centres unmarked) [Atropine] |  |  | Percentage of motility inhibition 0 h (110 µM): 3% and 0%; Percentage of motility inhibition 24 h (110 µM): 3% and 8% |
| COc1ccc2c3c1O[C@H]1C[C@@H](O)C=C[C@@]31CCNC2 [N‐Desmethyl Galanthamine] | 0% | 0% |  |
| C=CCCN1C[C@@H]2C[C@H](C1)c1cccc(=O)n1C2 [Rhombifoline] | 0% | 0% |  |
| COC(=O)[C@]12CCC(C)(C)C[C@H]1C1=CC[C@@H]3[C@@]4(C)CCC(=O)C(C)(C)[C@@H]4CC[C@@]3(C)[C@]1(C)CC2 [Methyl oleanonate] | 4% | 1% |  |
| COc1ccc(CCC(=O)c2ccc(O)cc2)c(OC)c1 [Loureirin A] | 11% | 0% |  |
| CC(C)=C1C/C=C(\C)CC/C=C(\C)CC1=O [Germacrone] | 12% | 9% |  |
| COc1cc2c(cc1OC)-c1cc3ccc(OC)c(O)c3c[n+]1CC2.[OH-] [Palmaturbine (hydroxide)] | 0% | 8% |  |
| CC(C)=CCC[C@](C)(O)[C@@H]1CC=C(C)CC1 [Levomenol] | 37% | 50% |  |

| Compound | Percentage of motility inhibition 0 h [1] | Percentage of motility inhibition 24 h [2] | further results |
| --- | --- | --- | --- |
| CCC[C@@H]1C[C@@H](C(=O)N[C@@H]([C@H]2O[C@H](SC)[C@H](O)[C@@H](O)[C@H]2O)[C@@H](C)O)N(C)C1.Cl.O [Lincomycin (hydrochloride hydrate)] | 1% | 0% |  |
| C[C@@H]1O[C@@H](OC[C@H]2O[C@@H](Oc3c(-c4ccc(O)c(O)c4)oc4cc(O)cc(O)c4c3=O)[C@H](O)[C@@H](O)[C@@H]2O)[C@H](O)[C@H](O)[C@H]1O [Ruti n] | 33% | 10% |  |
| O=C1C[C@@H](c2ccc(O)c(O)c2)Oc2cc(O[C@@H]3O[C@H](CO)[C@@H](O)[C@H](O)[C@H]3O)cc(O)c21 [Eriodictyol‐7‐O‐glucoside] | 11% | 4% |  |
| NC(=O)c1ncn([C@@H]2O[C@H](CO)[C@@H](O)[C@H]2O)c1N.O=P(O)(O)O [AICAR (phosphate)] | 20% | 6% |  |
| CC(C)=CCCC(C)(OC1OC(CO)C(O)C(O)C1O)C1CCC2(C)C1C(O)CC1C3(C)CC(O)C(OC4OC(CO)C(O)C(O)C4OC4OC(CO)C(O)C(O)C4O)C(C)(C)C3CCC12C (centres unmarked) [Gypenoside XLVI] | 1% | 2% |  |
| COc1cc2c(cc1OC)[C@@H]1Cc3ccc(OC)c(OC)c3CN1CC2 [Rotun dine] |  |  | Percentage of motility inhibition 0 h (0 h, 110 μM): 0%; Percentage of motility inhibition 24 h (24 h, 110 µM): 4% |
| CC(C)=CCC[C@](C)(O[C@@H]1O[C@H](CO)[C@@H](O)[C@H](O)[C@H]1O)[C@H]1CC[C@]2(C)[C@@H]1[C@H](O)C[C@@H]1[C@@]3(C)CC[C@H](O)C(C)(C)[C@@H]3[C@@H](O[C@@H]3O[C@H](CO)[C@@H](O)[C@H](O)[C@H]3O[C@@H]3OC[C@@H](O)[C@H](O)[C@H]3O)C[C@]12C [Notoginsenoside R1] | 5% | 26% |  |
| C/C(=C\CNc1ncnc2c1ncn2[C@@H]1O[C@H](CO)[C@@H](O)[C@H]1O)CO [trans‐Zeatinriboside] | 9% | 0% |  |
| Cc1cc(CC(C)CC(C)(C)C)n(O)c(=O)c1.NCCO (centres unmarked) [Piroctone olamine] | 5% | 7% |  |
| COc1ccc(-c2cc(=O)c3c(O)c(OC)c(OC)c(OC)c3o2)cc1OC [5‐O‐Demethylnobiletin] | 26% | 29% |  |
| Hydrastinine (hydrochloride) | 7% | 0% |  |
| COc1cc(/C=C/C(=O)OCC[N+](C)(C)C)cc(OC)c1O [Sinapine] |  |  | Percentage of motility inhibition 0 h (110 µM): 0%; Percentage of motility inhibition 24 h (110 µM): 1% |
| CC(C)(O)[C@@H]1CC[C@](C)([C@H]2[C@@H](O)C[C@@]3(C)[C@@H]4C[C@H](O)[C@H]5C(C)(C)[C@@H](O[C@@H]6OC[C@@H](O)[C@H](O)[C@H]6O[C@@H]6O[C@H](CO)[C@@H](O)[C@H](O)[C@H]6O)CC[C@@]56C[C@@]46CC[C@]23C)O1 [Astragaloside III] | 0% | 35% |  |
| Cn1cnc2c(ncn2[C@@H]2O[C@H](CO)[C@@H](O)[C@H]2O)c1=N [1‐Methyladenosine] | 7% | 0% |  |
| CN[C@@H]1[C@H](O)[C@H](NC)[C@H]2O[C@@]3(O)C(=O)C[C@@H](C)O[C@H]3O[C@@H]2[C@H]1O.Cl.Cl.O.O.O.O.O | 16% | 2% |  |
| CC(/C=C/C=C(\C)C(=O)O)=C\C=C\C=C(C)\C=C\C=C(/C)C(=O)O.CNC[C@H](O)[C@@H](O)[C@H](O)[C@H](O)CO.CNC[C@H](O)[C@@H](O)[C@H](O)[C@H](O)CO [Crocetin (meglumine)] | 6% | 10% |  |
| CC1(C)[C@H]2O[C@H]2[C@H]2[C@](C)(O)[C@@H]3CC[C@@H]4[C@@H](O)[C@@]3(C[C@@H](O)[C@@]21O)C[C@@]4(C)O [Rhodojaponin III] | 5% | 2% |  |
| CC(=O)OC/C1=C/C[C@H]2[C@@H](/C=C(\C)C(=O)[C@@]3(OC(C)=O)C[C@H](C)[C@H](OC(=O)c4ccccc4)[C@@H]3[C@H]1OC(C)=O)C2(C)C [Euphorbia factor L7b] | 14% | 37% |  |
| C[C@@H]1CC[C@@]2(OC1)O[C@H]1C[C@H]3[C@@H]4CC=C5C[C@@H](O[C@@H]6O[C@H](CO)[C@@H](O[C@@H]7O[C@H](CO)[C@@H](O)[C@H](O[C@@H]8O[C@H](CO)[C@@H](O)[C@H](O)[C@H]8O)[C@H]7O)[C@H](O)[C@H]6O[C@@H]6O[C@@H](C)[C@H](O)[C@@H](O)[C@H]6O)CC[C@]5(C)[C@H]4CC[C@]3(C)[C@H]1[C@@H]2C [Zingiberen Newsaponin] | 0% | 60% |  |
